The source made the active and inactive calls.
Columns and labels:
[1] = HEp-2 cell cytotoxicity, dose response, cytotoxicity control for RSV inhibitor project, HTS (AID 2410); type: functional; conditions: human respiratory syncytial virus
[2] = molecular target: Paired box protein Pax-8 (Homo sapiens, UniProt Q06710); test: inhibitors of PAX8-driven TPO luciferase reporter, dose response, RMG-I cells, cherry-pick (AID 687027); type: functional, cell-based;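 note: luciferase reporter driven by Pax8 target thyroperoxidase promoter measured by SteadyGlo luminescence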
[3] = molecular target: T1, Protein skinhead-1 (Caenorhabditis elegans, UniProt P34707); type: functional
T1 sequence (P34707 whole entry): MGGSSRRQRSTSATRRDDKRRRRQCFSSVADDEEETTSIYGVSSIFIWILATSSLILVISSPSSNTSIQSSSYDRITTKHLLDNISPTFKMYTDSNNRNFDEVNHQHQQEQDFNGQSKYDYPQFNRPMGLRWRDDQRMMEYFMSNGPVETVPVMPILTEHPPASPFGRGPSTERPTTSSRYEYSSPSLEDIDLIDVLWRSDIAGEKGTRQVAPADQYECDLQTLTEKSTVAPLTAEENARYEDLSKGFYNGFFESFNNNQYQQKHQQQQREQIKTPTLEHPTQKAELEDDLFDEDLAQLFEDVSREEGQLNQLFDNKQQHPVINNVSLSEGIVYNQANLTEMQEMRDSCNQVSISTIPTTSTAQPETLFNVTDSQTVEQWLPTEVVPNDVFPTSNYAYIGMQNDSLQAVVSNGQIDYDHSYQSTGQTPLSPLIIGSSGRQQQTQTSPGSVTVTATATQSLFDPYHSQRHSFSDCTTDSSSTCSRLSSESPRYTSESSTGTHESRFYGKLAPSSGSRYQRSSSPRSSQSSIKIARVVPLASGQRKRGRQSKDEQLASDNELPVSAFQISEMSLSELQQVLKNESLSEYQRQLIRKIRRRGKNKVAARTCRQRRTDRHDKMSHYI

[4] = molecular target: T2, RNA-binding protein pos-1 (Caenorhabditis elegans, UniProt G5EF15); test: inhibitors of POS-1/mex-3 RNA binding, dose response, biochemical, fluorescence polarization (AID 1964);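 note: purified POS-1 fused to maltose binding protein made in E. coli; potency of compounds blocking POS-1 binding to fluorescent RNA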
T2 sequence (G5EF15 whole entry): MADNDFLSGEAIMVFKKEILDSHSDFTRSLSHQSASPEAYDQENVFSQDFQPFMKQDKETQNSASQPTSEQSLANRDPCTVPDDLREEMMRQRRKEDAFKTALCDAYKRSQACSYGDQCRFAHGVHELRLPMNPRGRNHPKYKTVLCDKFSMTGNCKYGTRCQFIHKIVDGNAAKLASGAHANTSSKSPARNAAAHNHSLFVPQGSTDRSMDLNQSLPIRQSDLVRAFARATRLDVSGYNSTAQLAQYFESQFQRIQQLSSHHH

[5] = molecular target: T3, Zinc finger protein mex-5 (Caenorhabditis elegans, UniProt Q9XUB2); test: MEX-5/TCR-2 RNA interaction inhibitors, dose response, biochemical, C. elegans, fluorescence polarization (AID 1960)
T3 sequence (Q9XUB2 whole entry): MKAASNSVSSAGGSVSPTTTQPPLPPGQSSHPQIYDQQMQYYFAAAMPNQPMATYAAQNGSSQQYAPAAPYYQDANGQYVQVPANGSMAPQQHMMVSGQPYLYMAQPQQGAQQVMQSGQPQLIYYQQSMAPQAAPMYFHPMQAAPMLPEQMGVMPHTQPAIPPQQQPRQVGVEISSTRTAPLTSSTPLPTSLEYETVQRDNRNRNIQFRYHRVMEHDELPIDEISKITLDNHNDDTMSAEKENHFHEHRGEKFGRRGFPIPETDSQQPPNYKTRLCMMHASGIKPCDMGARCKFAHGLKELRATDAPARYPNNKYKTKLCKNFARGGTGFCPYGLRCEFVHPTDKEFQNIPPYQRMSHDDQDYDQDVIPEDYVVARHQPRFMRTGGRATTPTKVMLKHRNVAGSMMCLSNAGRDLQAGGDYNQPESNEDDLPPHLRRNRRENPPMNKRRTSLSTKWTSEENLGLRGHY

[6] = molecular target: T4, Heat shock factor protein 1 (Mus musculus, UniProt P38532); test: HSF1 potentiators in luciferase reporter cells, confirmation, cell-based, NIH3T3, luminescence, dose retest (AID 435004); type: functional;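 note: stress induced by proteasome inhibitor MG132 added 30 min after compound; luciferase reporter driven by HSF1 response element in NIH3T3 cells; actives raise luminescence as potentiators of the MG132 stress response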
T4 sequence (P38532 whole entry): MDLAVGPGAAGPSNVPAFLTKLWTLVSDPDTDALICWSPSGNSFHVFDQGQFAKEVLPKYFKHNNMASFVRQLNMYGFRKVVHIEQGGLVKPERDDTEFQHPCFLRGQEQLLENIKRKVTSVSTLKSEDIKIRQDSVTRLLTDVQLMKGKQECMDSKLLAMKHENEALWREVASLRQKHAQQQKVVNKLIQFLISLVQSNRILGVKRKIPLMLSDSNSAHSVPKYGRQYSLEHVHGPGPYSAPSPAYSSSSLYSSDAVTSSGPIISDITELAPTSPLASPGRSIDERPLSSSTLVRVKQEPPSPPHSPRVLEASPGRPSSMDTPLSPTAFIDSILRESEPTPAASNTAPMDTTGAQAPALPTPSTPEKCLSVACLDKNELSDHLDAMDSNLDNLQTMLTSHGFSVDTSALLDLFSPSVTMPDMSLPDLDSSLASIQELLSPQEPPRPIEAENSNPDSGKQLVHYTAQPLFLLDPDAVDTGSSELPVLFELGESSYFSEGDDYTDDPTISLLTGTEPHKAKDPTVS

[7] = molecular target: T4, Heat shock factor protein 1; test: inhibition of MG132-induced HSE-luciferase signal, confirmation, cell-based, NIH3T3, luminescence, dose retest (AID 2382); type: functional;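 note: NIH3T3 fibroblasts with HSF1-driven luciferase reporter stressed by proteasome inhibitor MG132; luminescence from HSF1-driven luciferase expression after 8 hours of MG132 stress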
[8] = system: H9c2; test: cells; type: functional, cell-based; conditions: Rattus norvegicus, H9c2, Myocardium;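 note: confirmatory concentration-response retest of ultra-high-throughput screening hits for modulation of myocardial damage; cell death induced by hydrogen peroxide oxidative stress; compound pretreatment for 60 min then peroxide exposure for 2 h; potency is for protecting the cells against peroxide damage rather than for killing them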
[9] = molecular target: Cytochrome P450 2C9 (Homo sapiens, UniProt P11712)
[10] = molecular target: Cytochrome P450 2C19 (Homo sapiens, UniProt P33261); test: Cytochrome panel assay with activity outcomes. Panel member name: p450-cyp2c19 Compounds with AC50 equal or less than 10 uM are considered active; type: functional; conditions: read-out: AC50
Sequence of Cytochrome P450 2C19 (P33261 whole entry): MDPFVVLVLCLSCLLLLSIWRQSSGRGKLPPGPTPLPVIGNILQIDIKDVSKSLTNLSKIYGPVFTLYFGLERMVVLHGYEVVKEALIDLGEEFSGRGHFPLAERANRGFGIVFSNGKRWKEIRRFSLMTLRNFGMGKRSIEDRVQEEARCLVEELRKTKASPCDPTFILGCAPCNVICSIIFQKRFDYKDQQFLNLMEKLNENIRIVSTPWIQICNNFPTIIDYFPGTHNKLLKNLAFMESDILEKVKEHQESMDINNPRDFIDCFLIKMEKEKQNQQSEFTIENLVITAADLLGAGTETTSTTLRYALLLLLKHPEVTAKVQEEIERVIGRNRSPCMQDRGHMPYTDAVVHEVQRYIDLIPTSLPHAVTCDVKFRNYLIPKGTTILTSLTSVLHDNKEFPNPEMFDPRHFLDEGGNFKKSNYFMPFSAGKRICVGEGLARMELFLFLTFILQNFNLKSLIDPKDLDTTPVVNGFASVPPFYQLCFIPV

Sequence of Paired box protein Pax-8 (Q06710 whole entry): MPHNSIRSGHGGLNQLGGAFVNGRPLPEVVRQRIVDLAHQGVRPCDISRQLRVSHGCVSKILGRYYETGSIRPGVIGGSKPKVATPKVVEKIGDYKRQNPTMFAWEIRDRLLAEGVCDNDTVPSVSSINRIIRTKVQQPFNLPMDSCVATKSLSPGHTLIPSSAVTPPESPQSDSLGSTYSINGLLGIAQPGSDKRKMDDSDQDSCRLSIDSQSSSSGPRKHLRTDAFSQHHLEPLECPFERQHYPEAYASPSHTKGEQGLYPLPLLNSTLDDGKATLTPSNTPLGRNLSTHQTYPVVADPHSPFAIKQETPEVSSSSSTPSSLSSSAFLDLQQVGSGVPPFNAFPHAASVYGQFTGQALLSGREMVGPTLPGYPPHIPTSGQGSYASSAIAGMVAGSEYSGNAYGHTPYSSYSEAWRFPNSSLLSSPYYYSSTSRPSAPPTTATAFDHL
Sequence of Cytochrome P450 2C9 (P11712 whole entry): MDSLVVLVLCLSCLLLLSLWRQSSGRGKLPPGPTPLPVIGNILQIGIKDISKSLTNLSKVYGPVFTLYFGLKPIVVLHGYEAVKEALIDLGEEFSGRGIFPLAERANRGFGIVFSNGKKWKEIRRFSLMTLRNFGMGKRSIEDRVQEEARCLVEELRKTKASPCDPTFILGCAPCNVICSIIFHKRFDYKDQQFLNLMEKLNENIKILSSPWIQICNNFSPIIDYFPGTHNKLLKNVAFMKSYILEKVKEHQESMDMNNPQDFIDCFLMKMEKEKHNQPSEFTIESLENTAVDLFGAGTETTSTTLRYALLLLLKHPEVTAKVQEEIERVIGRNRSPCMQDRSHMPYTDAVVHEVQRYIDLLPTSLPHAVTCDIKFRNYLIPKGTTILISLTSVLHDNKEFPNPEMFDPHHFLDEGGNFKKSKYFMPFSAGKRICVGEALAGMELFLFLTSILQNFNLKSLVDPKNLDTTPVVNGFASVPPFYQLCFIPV

## O=[N+]([O-])c1ccc(N2CCc3ccccc3C2)nc1
[1]
  CC50: 19.6 µM (active)

## Cc1ccccc1/N=C1\N=C(N)c2ccccc21
[2]
  AC50: 17.3 µM (active)

## O=C(Nc1nc(SCc2ccc(F)cc2)ns1)c1ccco1
[3]
  IC50: 70.5 µM (inactive)

## COc1ccccc1N1CCN(C(=O)c2sc3nc(C)nc(N4CCN(c5ccccn5)CC4)c3c2C)CC1
[1]
  CC50: 20 µM (active)

## O=S(=O)(c1ccccc1)N1CCCC(c2nc(O)c3nnn(Cc4cccc(Cl)c4)c3n2)C1 (stereo not drawn)
[1]
  CC50: 13.1 µM (active)

## Cc1nnc(N2C(=O)C(O)=C(C(=O)c3ccco3)C2c2cccc3ccccc23)s1 (stereo not drawn)
[4]
  EC50: > 300 µM (not active)
[5]
  EC50: > 300 µM (not active)

## CCOC(=O)Nc1nc(-c2ccc(F)cc2F)cs1
[3]
  IC50: 64.9 µM (inactive)

## C=CCSc1nnc(N2C(=O)C(O)=C(C(=O)c3ccco3)C2c2ccc(F)cc2)s1 (stereo not drawn)
[4]
  EC50: 114 µM (active)
[6]
  EC50: > 260 µM (inactive)
[5]
  EC50: 87.6 µM (active)

## COc1ccc(CNC(=O)c2cnc3cc(C)ccn3c2=O)cc1
[4]
  EC50: > 300 µM (not active)
[5]
  EC50: > 300 µM (not active)

## COCCCNC(=O)c1cn(CC(C)C)c(=O)c2c1c1ccccc1n2C
[7]
  EC50: > 195 µM (not active)
[3]
  IC50: > 100 µM (inactive)

## O=C(Nc1cc(=O)[nH]c2ncnn12)c1ccc(Cl)cc1Cl
[4]
  EC50: 43.5 µM (inconclusive)
[5]
  EC50: 20.5 µM (inconclusive)

## Cc1nc(NC(=O)/C=C/c2ccc(Cl)cc2Cl)sc1C(=O)N(C)C
[7]
  EC50: > 195 µM (not active)

## Cc1ccc(S(=O)(=O)NCCC(=O)N2CCN(S(=O)(=O)c3ccccc3)CC2)cc1C
[7]
  EC50: > 195 µM (not active)

## COc1ccc(N2C(=O)/C(=C/c3ccc(N(C)C)o3)C(=O)NC2=S)cc1
[4]
  EC50: > 300 µM (not active)
[5]
  EC50: > 150 µM (inconclusive)

## CCCN1C(=O)/C(=C/c2c[nH]nc2-c2ccccc2)SC1=S
[1]
  CC50: 20.7 µM (active)

## O=C(Nc1ccc(Cl)cc1)C(c1ccccc1)N(CCO)CCO (stereo not drawn)
[3]
  IC50: > 100 µM (inactive)

## O=C1CCCN1CCC1CCN(C(=O)Nc2ccccc2)CC1
[7]
  EC50: > 195 µM (not active)

## O=C(Nc1ccc(Nc2ccccc2)cc1)c1ccc(Cl)c([N+](=O)[O-])c1
[1]
  CC50: 18.7 µM (active)

## CCCCN(C)C(=O)c1cccc(OC2CCN(CC(C)(C)C)CC2)c1
[4]
  EC50: > 300 µM (not active)
[5]
  EC50: > 300 µM (inconclusive)

## O=C(CCc1nc(O)c2ccccc2n1)NCC(=O)Nc1ccc(F)c(F)c1
[8]
  IC50: 25.2 µM (active)

## Clc1c(-c2nnc3n2CCC3)sc2ccccc12
[1]
  CC50: 30.9 µM (active)

## O=C(CN1CCN(c2ccc(F)cc2)CC1)Nc1cccc(C(F)(F)F)c1
[1]
  CC50: 29.2 µM (active)

## CCN(CC)S(=O)(=O)c1cc(C(=O)Nc2cc(C)on2)ccc1Cl
[7]
  EC50: > 195 µM (not active)

## CC(C)c1ccc(NC(=O)CNC(=O)Cn2cnc3ccccc3c2=O)cc1
[7]
  EC50: 60.8 µM (active)

## CN(C)C=O.COc1cc(/C=C/c2nc3ccccc3c(=O)n2-c2ccc(O)cc2)ccc1O
[8]
  IC50: > 79 µM (inactive)

## COc1ccc(N2C(=O)NC(=O)/C(=C/c3ccc4c(c3)Cc3ccccc3-4)C2=O)cc1
[4]
  EC50: > 300 µM (not active)
[5]
  EC50: > 300 µM (not active)

## Brc1ccc(-c2nc(-c3cccnc3)no2)o1
[3]
  IC50: 42.7 µM (active)

## CCCN=C(S)NC1CC2CCCC(C1)N2Cc1ccc(F)cc1 (stereo not drawn)
[7]
  EC50: > 195 µM (not active)

## Cc1cc(/C=C2\C(=O)NC(=O)N(C)C2=O)c(C)n1-c1ccc2c(c1)OCO2
[4]
  EC50: > 300 µM (not active)
[5]
  EC50: > 300 µM (not active)

## COC(=O)c1cc(NC(=O)c2cc(-c3ccc(OC)cc3)oc2C(F)(F)F)ccc1N1CCOCC1
[1]
  CC50: 13.4 µM (active)

## COc1cc(NC(=O)c2cc(C)nc3ccccc23)cc(OC)c1
[7]
  EC50: > 195 µM (not active)

## COC(=O)c1c(C)[nH]c(C)c1-c1cccc([N+](=O)[O-])c1
[7]
  EC50: > 195 µM (not active)

## CCOc1c(C=C(C#N)C#N)c2ccccc2n1CC
[4]
  EC50: > 300 µM (not active)
[5]
  EC50: > 300 µM (not active)

## CC(Cc1ccccc1)C(=O)Nc1ccccc1 (stereo not drawn)
[7]
  EC50: > 195 µM (not active)

## O=C(COC(=O)Cc1nnc(O)c2ccccc12)NNC(=O)c1ccc(Cl)cc1
[8]
  IC50: > 79 µM (inactive)

## Oc1cc(-c2ccccc2Cl)c2c(n1)CCC2
[3]
  IC50: > 100 µM (inactive)

## O=C(Nc1cc[n+](-c2nc3ccccc3nc2[N-]S(=O)(=O)c2ccccc2)cc1)c1ccccc1Cl
[4]
  EC50: > 300 µM (not active)
[5]
  EC50: 32.7 µM (active)

## Cc1cccc(C(=O)Nc2ccc(C(=O)/C=C/c3cccs3)cc2)c1
[3]
  IC50: > 100 µM (inactive)

## COc1ccc(-c2cc(C(=O)N(C)Cc3ccccc3F)c3ccccc3n2)cc1OC
[8]
  IC50: 30.2 µM (inactive)

## CCCCn1nc(NC(=O)c2cccs2)c2cc3cc(OC)ccc3nc21
[8]
  IC50: > 79 µM (inactive)

## CC1Cc2ccccc2N1C(=O)c1cc2c(=O)n3ccccc3nc2n1C (stereo not drawn)
[8]
  IC50: 59.3 µM (inactive)
[9]
  AC50: 14.1 µM (inconclusive)
[10]
  AC50: 7.08 µM (inconclusive)

## Cc1cc2c(cc1S(=O)(=O)N1CCc3ccccc31)NC(=O)CO2
[1]
  CC50: 13.8 µM (active)

## O=C(Nc1ccccc1)NC1(C(=O)NCc2ccc3c(c2)OCO3)CCCCC1
[4]
  EC50: > 300 µM (not active)
[5]
  EC50: > 300 µM (not active)

## O=C1CN(C(=O)c2ccc(Br)o2)C(c2ccccc2)c2cc(Br)ccc2N1 (stereo not drawn)
[3]
  IC50: 83.6 µM (inactive)

## COc1ccc(-c2cc(C(=O)NNC(=O)c3csc(N4CCOCC4)n3)c3ccccc3n2)cc1
[8]
  IC50: > 79 µM (inactive)

## COC(=O)c1cc2ccc(OC)cc2c2cc(OC)c(OC)cc12
[8]
  IC50: > 79 µM (inactive)

## COc1cc(/C=N/NC(=O)c2cccnc2)ccc1OS(=O)(=O)c1cc(C)ccc1C
[8]
  IC50: > 79 µM (inactive)

## COc1cccc(/C=N/NC(=O)c2ccc(N3CCCC3=O)cc2)c1
[2]
  AC50: < 0.26 µM (active)

## COCCNC(=O)c1ccc(-c2ccc(OC)cc2C)c2ccoc12
[3]
  IC50: > 100 µM (inactive)

## C[C@@H]1CCCCO[C@H](CN(C)C(=O)Nc2ccc(C(F)(F)F)cc2)[C@@H](C)CN([C@@H](C)CO)C(=O)c2cc(NS(=O)(=O)c3cccs3)ccc2O1
[2]
  AC50: 6.63 µM (active)

## Cc1ccc(S(=O)(=O)Nc2ccc3c(c2)C(=O)N([C@@H](C)CO)C[C@H](C)[C@@H](CN(C)C(=O)Nc2ccc(C(F)(F)F)cc2)OCCCC[C@H](C)O3)cc1
[2]
  AC50: 3.14 µM (active)

## COc1ccccc1-c1ccc2c(c1)[C@H]1[C@H](CCN1S(=O)(=O)c1ccccc1F)[C@H](CO)N2
[2]
  AC50: 8.48 µM (active)

## O=C[C@H](O)[C@@H](O)[C@H](O)CO [XYLOSE]
[7]
  EC50: > 195 µM (not active)

Reference: ChEMBL document CHEMBL1201862, “PubChem BioAssay data set” (2004)
